Measurements taken from BigSolDB 2.1.

Oc1cc(O)c2cc(O)c(-c3cc(O)c(O)c(O)c3)[o+]c2c1.[Cl-]
solubility (mole fraction)
Conditions | 298.15 K | 303.15 K | 308.15 K | 313.15 K | 318.15 K | 323.15 K | 328.15 K | 333.15 K | 338.15 K | 343.15 K
in acetone | 5.5e-11 | 6.6e-11 | 7.1e-11 | 7.7e-11 | 8.7e-11 | 9.8e-11 | 1.06e-10 | 1.24e-10 | 1.35e-10 | 1.57e-10
in ethanol | 5.73e-08 | 6.13e-08 | 7.04e-08 | 7.7e-08 | 8.59e-08 | 9.8e-08 | 1.06e-07 | 1.23e-07 | 1.37e-07 | 1.56e-07
in methanol | 5.86e-07 | 6.62e-07 | 7.71e-07 | 8.77e-07 | 9.71e-07 | 1.05e-06 | 1.26e-06 | 1.4e-06 | 1.53e-06 | 1.69e-06
in water | 5.35e-07 | 6.39e-07 | 6.98e-07 | 7.87e-07 | 8.69e-07 | 1.02e-06 | 1.11e-06 | 1.24e-06 | 1.48e-06 | 1.64e-06
